Test results from patent publication US4863942A, “Novel resorcinol ethers and anti-inflammatory and anti-allergic use thereof” (Ciba-Geigy Corporation, priority 1984, dated 1989).
Where two headings read alike, the source gives them in different places. One block for each compound: values may come before it.

Experiments:
[1] = molecular target: phospholipase A2 obtained from human leucocytes; test: In vitro test for determining the inhibition of phospholipase A2 obtained from human leucocytes; assay type: biochemical; details: pH 7, 37°, one hour, 14C-oleic acid labelled E. coli phospholipids
Text: In vitro test for determining the inhibition of phospholipase A2 obtained from human leucocytes Human neutrophilic polymorphonuclear leucocytes are isolated from "buffy coats" by multistage fractional sedimentation and deep-frozen. Phospholipase A2 is extracted from the cell suspension by homogenisation with the addition of ice-cold 0.36N H2 SO4 in 2M NaCl and the supernatant obtained after centrifugation at 10,000 g is dialysed against sodium acetate buffer pH 4.5. […] The reaction is stopped by the addition of Dole reagent (isopropanol/heptane/1N H2 SO4 40:10:1, v/v) and the ^14 C-oleic acid released selectively by phospholipase A2 is extracted. […] The ^14 C-oleic acid in the eluate is determined radiometrically. In order to ascertain the inhibitory action of test substances on phospholipase A2, these substances are added to the incubation mixture in the form of solutions in water, dimethyl sulphoxide (final concentration in the mixture up to 5% by volume) or ethanol (final concentration in the mixture up to 2.5% by volume). The strength of action of the test substances is expressed by the IC50, that is to say the concentration that brings about a 50% inhibition of the control activity The IC50 is ascertained on a graph by entering the percentage inhibition on the ordinate against the logarithm of the concentration (μM) on the abscissa.

[2] = tested on: LTD4-induced contractions of the isolated ileum; test: Inhibitory action on LTD4-induced contractions of the guinea-pig ileum; assay type: cell-based, guinea-pigs; details: Cavia porcellus; synthetic LTD4, guinea-pig ileum segments in Tyrode's solution, 38° C.
Experimental: (§1) For example, they have an anti-allergic action which is based on a pronounced LTD4 (leucotriene-D4) and PAF (PAF-acetoether) antagonism.
Inhibitory action on LTD4 -induced contractions of the guinea-pig ileum
Contractions, the severity of which is recorded, are induced by synthetic LTD4 (leucotriene-D4, potassium salt) in ileum segments that have been taken from guinea-pigs having a body weight of from 300 to 400 g, fastened in an organ bath in Tyrode's solution (38° C., gassing with 95% O2 and 5% CO2) and charged with […]. The degree of inhibition of these contractions that is attributable to the LTD4 -antagonistic action of the test substance is measured. The concentration of test substance that reduces LTD4 -induced contractions to 50% of the starting value is ascertained, this concentration being termed IC50.

[3] = tested on: LTD4-induced bronchospasms; test: Bronchoconstriction test in guinea-pigs (in vivo, aerosol), LTD4-induced bronchospasm; details: aerosol treatment, compliance in third minute after LTD4 aerosol
Experimental: as §1
Bronchoconstriction test in guinea-pigs (in vivo, aerosol)
Male guinea-pigs weighing from 400 to 700 g are anaesthetised intraperitoneally with 1.4 g/kg of urethane, and a polyethylene tube is introduced into the jugular vein. A second polyethylene tube is introduced into the trachea. The pressure in the oesophagus is recorded by means of a tube which is introduced into the oesophagus and which is connected to a Statham pressure transducer. […] The flow is measured by means of this arrangement. […]
Aqueous solutions are each freshly prepared and introduced by means of an on-stream drug vial into the chamber of the spray device. […] The reduction in the compliance in the third minute after the administration of LTD4 is read by comparing the average value of three animals with the average value of three control animals and the percentage inhibition of the compliance is calculated in accordance with the following formula: [formula] If different concentrations of active ingredient are investigated, then the percentage inhibition for each concentration is recorded by entering the log concentration on the abscissa against the percentage inhibition on the ordinate. […]

[4] = molecular target: phospholipase C obtained from human thrombocytes; test: In vitro test for determining the inhibition of phospholipase C obtained from human thrombocytes; assay type: biochemical
Experimental: In vitro test for determining the inhibition of phospholipase C obtained from human thrombocytes
Human thrombocytes are obtained from "buffy coats" by fractional centrifugation and then deep-frozen. Phospholipase C is released by ultrasound treatment of the cell suspension and, after ultracentrifugation (150,000 g, 1 hour) is in soluble form in the supernatant.
In order to determine the enzyme activity, enzyme (20-100 μg protein) is incubated for 5 minutes at 37° in 0.025M tris/malate buffer pH 6 with the addition of 0.2 mM CaCl2 and 0.02 mM radioactively labelled substrate, phosphatidyl- [^14 C]-inositol. The reaction is stopped by extraction by shaking with CHCl3 /CH3 OH 2:1 (v/v). Substrate that has not been consumed is extracted into the organic phase while the reaction product, ^14 C-inositol phosphate, remains in the aqueous phase and can be measured by radiometry of an aliquot.
In order to ascertain the inhibitory action of test substances on phospholipase C, these substances are added to the incubation mixture in the form of solutions in water or dimethyl sulphoxide (final concentration in the mixture up to 5% by volume). The strength of action of the test substances is expressed by the IC50, that is to say the concentration that brings about a 50% inhibition of the control activity. The IC50 is ascertained on a graph by entering the percentage inhibition on the ordinate against the logarithm of the concentration (μM) on the abscissa.

Compound: CCCc1c(OCC(O)COc2cccc(NC(=O)C(=O)O)c2)ccc(C(C)=O)c1O (stereo not drawn) [N-{3-[3-(4-acetyl-3-hydroxy-2-n-propyl-phenoxy)-2-hydroxypropoxy]-phenyl}-oxamic acid, reference compound]
IC50 [1]: inactive at 100

Compound: CCCc1c(OCCCOc2cc(NC(=O)c3nnn[nH]3)c(C)cc2Br)ccc(C(C)=O)c1O [N-{3-[3-(4-acetyl-3-hydroxy-2-n-propylphenoxy)-propoxy]-4-bromo-6-methylphenyl}-1H-tetrazole-5-carboxamide]
IC50 ([1]; read-out: IC50): 10 µM
IC50 [2]: 8 nM

Compound: CCCc1c(OCCCOc2cccc(NC(=O)c3nnn[nH]3)c2C#N)ccc(C(C)=O)c1O [N-{3-[3-(4-acetyl-3-hydroxy-2-n-propylphenoxy)-propoxy]-2-cyanophenyl}-1H-tetrazole-5-carboxamide]
IC50 ([1]; read-out: IC50): 20 µM
IC50 ([4]; pH 6, 37°, 5 minutes, phosphatidyl-[14C]-inositol, read-out: IC50): 14 µM

Compound: CCCc1c(OCCCOc2cccc(NC(=O)C(=O)O)c2C#N)ccc(C(C)=O)c1O [N-{3-[3-(4-acetyl-3-hydroxy-2-n-propylphenoxy)-propoxy]-2-cyanophenyl}-oxamic acid]
IC50 ([1]; read-out: IC50): 30 µM

Compound: CCCc1c(OCC(O)COc2cccc(NC(=O)C(=O)O)c2C#N)ccc(C(C)=O)c1O (stereo not drawn) [N-{3-[3-(4-acetyl-3-hydroxy-2-n-propyl-phenoxy)-2-hydroxypropoxy]-2-cyanophenyl}-oxamic acid, reference compound]
IC50 [1]: inactive at 100
IC50 ([4]; pH 6, 37°, 5 minutes, phosphatidyl-[14C]-inositol): inactive at 100

Compound: CCN(CC)CCCC(C)Nc1c2ccc(Cl)cc2nc2ccc(OC)cc12 (stereo not drawn) [mepacrine, reference compound]
IC50 ([1]; read-out: IC50): 1600 µM
IC50 ([4]; mepacrine under the test conditions described, read-out: IC50): 20 µM

Second part, the compound after the results:

IC50 ([1]; read-out: IC50): 23 µM
Compound: CCCc1c(OCCCOc2cccc(NC(=O)C(=O)O)c2)ccc(C(C)=O)c1O [N-{3-[3-(4-acetyl-3-hydroxy-2-n-propylphenoxy)-propoxy]-phenyl}-oxamic acid]

IC50 ([1]; read-out: IC50): 15 µM
IC50 [3]: 0.033 % of the aerosol solution
Compound: CCCc1c(OCCCOc2cc(NC(=O)C(=O)O)c(C)cc2Br)ccc(C(C)=O)c1O [N-{3-[3-(4-acetyl-3-hydroxy-2-n-propylphenoxy)-propoxy]-4-bromo-6-methylphenyl}-oxamic acid]

IC50 [2]: 15 nM
IC50 [3]: 0.024 % of the aerosol solution
Compound: CCCc1c(OCCCOc2ccc(C)c(NC(=O)C(=O)O)c2)ccc(C(C)=O)c1O [N-{3-[3-(4-acetyl-3-hydroxy-2-n-propylphenoxy)-propoxy]-6-methylphenyl}-oxamic acid]
